Tests used:
[1] = Effect of humidity on prolonged storage (20% RH, 48 hours; DVS, DSC, TGA, PSD, SEM); type: physicochemical; settings: 20% RH for 48 hours; for DSC trace, thermal behaviour of stored sample: post-humidity treatment
Protocol: In order to evaluate the effect of humidity on prolonged storage processed BDP hydrate was subjected to 20% relative humidity (RH) for 48 hours. The sample recovered after storage was analysed by DSC, TGA, PSD and SEM. In order to evaluate the effect of humidity on prolonged storage, processed BDP heptane was subjected to 20% relative humidity (RH) for 48 hours. The sample recovered after storage was analysed by DSC, TGA, PSD and SEM.

[2] = Dry Sympatec PSD analysis (particle size distribution); type: physicochemical; settings: pre-storage

SMILES: CCC(=O)OCC(=O)[C@@]1(OC(=O)CC)[C@@H](C)C[C@H]2[C@@H]3CCC4=CC(=O)C=C[C@]4(C)[C@@]3(Cl)[C@@H](O)C[C@@]21C.O [BDP heptane, beclomethasone diproprionate]
- DSC trace, thermal behaviour of stored sample [1]: no variation in the thermal behaviour
- Particle Size, cumulative distribution Q3 X10 ([1]; post-storage sample): 0.68 μ
- Particle Size, cumulative distribution Q3 X50 ([1]; post-storage sample): 2.44 μ
- Particle Size, cumulative distribution Q3 X90 ([1]; post-storage sample): 5.29 μ
- Particle size distribution relative to the inhalation range [2]: extremely promising and within the inhalation range

SMILES: CCC(=O)OCC(=O)[C@@]1(OC(=O)CC)[C@@H](C)C[C@H]2[C@@H]3CCC4=CC(=O)C=C[C@]4(C)[C@@]3(Cl)[C@@H](O)C[C@@]21C.O [BDP hydrate, beclomethasone diproprionate]
- DVS mass plot, change of mass during storage [1]: considerable weight loss due to partial dehydration
- Stability on prolonged storage compared with anhydrous BDP [1]: higher stability on prolonged storage than anhydrous BDP
- DSC trace, thermal behaviour of stored sample [1]: no variation in the thermal behaviour
- Particle Size, cumulative distribution Q3 X50 ([1]; post-storage sample): 1.37 μ
- Particle Size, cumulative distribution Q3 X90 ([1]; post-storage sample): 2.95 μ
- Particle size distribution relative to the inhalation range [2]: well within the inhalation range
